The record followed here is ChEMBL document CHEMBL1157550, “Incorporation of fluorinated phenylalanine generates highly specific inhibitor of proteasome's chymotrypsin-like sites” (J Med Chem, 2010).

SMILES strings stand for the structures.

The target in experiment [1] is Proteasome Macropain subunit (Homo sapiens) (UniProt P49721). Description: Inhibition of 26S proteasome beta 2 in human HEK293 cell lysate assessed as residual activity at 1 uM after 1 hr. It counts as cell-free.
Experiment [2] shares this target. Description: Inhibition of 26S proteasome beta 2 in human HEK293 cell lysate assessed as residual activity at […] after 1 hr. It counts as cell-free.
Experiment [3] concerns the target Proteasome subunit beta type-5 (Homo sapiens) (UniProt P28074). Description: Inhibition of 26S proteasome beta 5 in human HEK293 cell lysate assessed as residual activity at 1 uM after 1 hr.
Experiment [4] has the same target. Description: Inhibition of 26S proteasome beta 5 in human HEK293 cell lysate assessed as residual activity at 3 uM after 1 hr.
Experiment [5] deals with Proteasome Macropain subunit (Homo sapiens) (UniProt P49721). Description: Inhibition of 26S proteasome beta 2 in human HEK293 cell lysate assessed as residual activity at 0.03 uM after 1 hr. In kind it is cell-free.
Experiment [6] deals with T1, Proteasome component C5 (Homo sapiens) (UniProt P20618).
T1 sequence (whole entry): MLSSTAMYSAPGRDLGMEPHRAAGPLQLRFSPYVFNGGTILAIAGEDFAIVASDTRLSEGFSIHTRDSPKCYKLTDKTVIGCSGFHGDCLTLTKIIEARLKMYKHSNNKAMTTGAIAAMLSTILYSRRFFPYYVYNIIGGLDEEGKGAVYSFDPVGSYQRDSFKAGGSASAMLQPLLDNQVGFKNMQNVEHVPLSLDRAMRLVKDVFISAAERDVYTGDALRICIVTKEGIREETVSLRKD
Description: Inhibition of 26S proteasome beta 1 in human HEK293 cell lysate assessed as residual activity at 3 uM after 1 hr. In kind it is cell-free.

The target in experiment [7] is Proteasome subunit beta type-5 (Homo sapiens) (UniProt P28074). Description: Inhibition of 26S proteasome beta 5 in human HEK293 cell lysate assessed as residual activity at 0.11 uM after 1 hr.
Sequence of Proteasome subunit beta type-5 (Homo sapiens) (P28074 whole entry, looked up): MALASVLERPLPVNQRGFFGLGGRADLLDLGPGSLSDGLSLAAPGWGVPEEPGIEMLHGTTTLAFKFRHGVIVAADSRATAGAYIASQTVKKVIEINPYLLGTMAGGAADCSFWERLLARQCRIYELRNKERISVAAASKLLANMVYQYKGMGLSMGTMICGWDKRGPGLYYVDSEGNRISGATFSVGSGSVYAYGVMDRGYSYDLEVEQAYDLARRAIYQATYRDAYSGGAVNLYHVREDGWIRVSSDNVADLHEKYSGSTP
Experiment [8] shares this target. Description: Inhibition of 26S proteasome beta 5 in human HEK293 cell lysate assessed as residual activity at 0.03 uM after 1 hr.
In experiment [9] the target is Proteasome Macropain subunit (Homo sapiens) (UniProt P49721). Description: Inhibition of 26S proteasome beta 2 in human HEK293 cell lysate assessed as residual activity at 0.11 uM after 1 hr. It counts as cell-free.
The target of experiment [10] is T1, Proteasome component C5 (Homo sapiens). As to the kind of experiment: Inhibition of 26S proteasome beta 1 in human HEK293 cell lysate assessed as residual activity at 0.11 uM after 1 hr. In kind it is cell-free.
Experiment [11] has the same target. As to the kind of experiment: Inhibition of 26S proteasome beta 1 in human HEK293 cell lysate assessed as residual activity at 1 uM after 1 hr. In kind it is cell-free.
Experiment [12] has the same target. Description: Inhibition of 26S proteasome beta 1 in human HEK293 cell lysate assessed as residual activity at 9 uM after 1 hr. It counts as cell-free.
The target is the same in experiment [13]. Description: Inhibition of 26S proteasome beta 1 in human HEK293 cell lysate assessed as residual activity at […] after 1 hr. In kind it is cell-free.
The target in experiment [14] is Proteasome Macropain subunit (Homo sapiens) (UniProt P49721). As to the kind of experiment: Inhibition of 26S proteasome beta 2 in human HEK293 cell lysate assessed as residual activity at 3 uM after 1 hr. In kind it is cell-free.
The target in experiment [15] is Proteasome subunit beta type-5 (Homo sapiens) (UniProt P28074). As to the kind of experiment: Inhibition of 26S proteasome beta 5 in human HEK293 cell lysate assessed as residual activity at 9 uM after 1 hr.
The target in experiment [16] is Proteasome Macropain subunit (Homo sapiens) (UniProt P49721). As to the kind of experiment: Inhibition of 26S proteasome beta 2 in human HEK293 cell lysate assessed as residual activity at 9 uM after 1 hr. It counts as cell-free.
Experiment [17] has as its target T1, Proteasome component C5 (Homo sapiens). As to the kind of experiment: Inhibition of 26S proteasome beta 1 in human HEK293 cell lysate assessed as residual activity at 0.03 uM after 1 hr. In kind it is cell-free.
Experiment [18] concerns the target Proteasome subunit beta type-5 (Homo sapiens) (UniProt P28074). As to the kind of experiment: Inhibition of 26S proteasome beta 5 in human HEK293 cell lysate assessed as residual activity at […] after 1 hr.

Sequence of Proteasome Macropain subunit (Homo sapiens) (P49721 whole entry): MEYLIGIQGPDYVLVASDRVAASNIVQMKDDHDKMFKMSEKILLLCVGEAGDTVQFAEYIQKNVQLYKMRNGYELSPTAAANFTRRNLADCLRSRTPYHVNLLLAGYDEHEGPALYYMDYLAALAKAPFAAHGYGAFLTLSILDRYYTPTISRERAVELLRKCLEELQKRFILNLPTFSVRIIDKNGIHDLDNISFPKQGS

In the case of `CC1=CC(C)=[N+]2C1=C(CCCCc1cn([C@@H](Cc3ccccc3)C(=O)N[C@@H](Cc3ccccc3)C(=O)N[C@@H](Cc3c(F)c(F)c(F)c(F)c3F)C(=O)N[C@@H](CC(C)C)C(=O)[C@@]3(C)CO3)nn1)c1c(C)cc(C)n1[B-]2(F)F`, the Activity in experiment [1] is 124%; in experiment [2], 106%; in experiment [3], 25.3%; in experiment [4] it was 18%; in experiment [5], 117%; in experiment [6], 120%. Moreover, the Activity in experiment [7] came out at 76.5%; in [8], 89.7%; in experiment [9], 134%; in [10], 111%; in [11], 107%; in experiment [12] it was 100%. Further, the Activity in experiment [13] worked out at 98.4%; in experiment [14] it was 141%; in experiment [15] it was 8.3%; in experiment [16], 102%; in [17], 101%; in experiment [18] it was 45.8%.
